Several values for one entry are separate records, joined by “and”; a condition that tells them apart may be missing. Identical values can stand only once.
Details: Liquid, Hot wire method

FC(F)CC(F)(F)F [1,1,1,3,3-pentafluoropropane]
Details	thermal conductivity
283.24 K, 29153 kPa	0.1046 W/m/K
283.25 K, 29157 kPa	0.1041 W/m/K
283.29 K, 22330 kPa	0.1022 W/m/K
283.3 K, 22338 kPa	0.102 W/m/K
283.31 K, 16102 kPa	0.09978 W/m/K
283.34 K, 10490 kPa	0.09781 W/m/K
283.35 K, 10482 kPa	0.09779 W/m/K
283.39 K, 5078 kPa	0.09561 W/m/K
283.39 K, 5084 kPa	0.09578 W/m/K
283.4 K, 124 kPa	0.09369 W/m/K
297.28 K, 238 kPa	0.08846 W/m/K and 0.0884 W/m/K
297.3 K, 6681 kPa	0.09147 W/m/K
297.31 K, 6682 kPa	0.09132 W/m/K
297.33 K, 12567 kPa	0.09379 W/m/K
297.33 K, 12571 kPa	0.09396 W/m/K
297.36 K, 12582 kPa	0.09405 W/m/K
297.37 K, 12586 kPa	0.09376 W/m/K
297.49 K, 19332 kPa	0.09652 W/m/K
297.49 K, 19337 kPa	0.09665 W/m/K
297.69 K, 229 kPa	0.08847 W/m/K
297.69 K, 239 kPa	0.0881 W/m/K
297.7 K, 6677 kPa	0.0909 W/m/K and 0.09107 W/m/K
297.72 K, 12571 kPa	0.09392 W/m/K
297.73 K, 12572 kPa	0.0939 W/m/K
297.75 K, 12582 kPa	0.09397 W/m/K
297.75 K, 12583 kPa	0.09395 W/m/K
297.86 K, 19322 kPa	0.09664 W/m/K
297.86 K, 19340 kPa	0.09658 W/m/K
298.13 K, 233 kPa	0.08778 W/m/K
298.14 K, 234 kPa	0.08789 W/m/K
298.14 K, 6680 kPa	0.09232 W/m/K and 0.09104 W/m/K
298.14 K, 12568 kPa	0.09369 W/m/K
298.14 K, 12571 kPa	0.09358 W/m/K
298.17 K, 12583 kPa	0.09365 W/m/K
298.18 K, 12574 kPa	0.09352 W/m/K
298.26 K, 19324 kPa	0.09657 W/m/K
298.27 K, 19334 kPa	0.09654 W/m/K
298.58 K, 12568 kPa	0.09385 W/m/K
298.59 K, 12563 kPa	0.09379 W/m/K
298.6 K, 6668 kPa	0.09111 W/m/K
298.6 K, 6673 kPa	0.0911 W/m/K
298.61 K, 230 kPa	0.08804 W/m/K
298.61 K, 234 kPa	0.08787 W/m/K
298.62 K, 12577 kPa	0.09374 W/m/K
298.62 K, 12578 kPa	0.09384 W/m/K
298.7 K, 19323 kPa	0.09665 W/m/K
298.71 K, 19329 kPa	0.09658 W/m/K
298.72 K, 26079 kPa	0.09945 W/m/K
298.72 K, 26080 kPa	0.09952 W/m/K
298.73 K, 33915 kPa	0.1022 W/m/K
298.73 K, 33916 kPa	0.1019 W/m/K
298.74 K, 41639 kPa	0.1043 W/m/K
298.75 K, 41635 kPa	0.1043 W/m/K
299.08 K, 12562 kPa	0.09373 W/m/K
299.09 K, 12561 kPa	0.09382 W/m/K
299.09 K, 26077 kPa	0.09835 W/m/K
299.09 K, 26079 kPa	0.09892 W/m/K
299.09 K, 33913 kPa	0.1011 W/m/K
299.09 K, 33914 kPa	0.1013 W/m/K
299.09 K, 41634 kPa	0.1044 W/m/K
299.09 K, 41635 kPa	0.1044 W/m/K
299.1 K, 6675 kPa	0.09125 W/m/K
299.11 K, 6673 kPa	0.0912 W/m/K
299.11 K, 12580 kPa	0.0938 W/m/K
299.12 K, 12583 kPa	0.09382 W/m/K
299.14 K, 227 kPa	0.08804 W/m/K
299.14 K, 238 kPa	0.08799 W/m/K
299.19 K, 19316 kPa	0.09651 W/m/K
299.19 K, 19328 kPa	0.09648 W/m/K
299.48 K, 41634 kPa	0.1043 W/m/K
299.49 K, 33910 kPa	0.1012 W/m/K
299.49 K, 33912 kPa	0.1011 W/m/K
299.49 K, 41635 kPa	0.1042 W/m/K
299.5 K, 26073 kPa	0.09896 W/m/K
299.5 K, 26076 kPa	0.099 W/m/K
299.89 K, 41632 kPa	0.1042 W/m/K
299.9 K, 41629 kPa	0.1042 W/m/K
299.91 K, 33908 kPa	0.1013 W/m/K
299.92 K, 33910 kPa	0.1013 W/m/K
299.93 K, 26071 kPa	0.09862 W/m/K
299.93 K, 26073 kPa	0.09884 W/m/K
300.35 K, 41624 kPa	0.1042 W/m/K
300.35 K, 41629 kPa	0.1044 W/m/K
300.37 K, 33905 kPa	0.1015 W/m/K
300.38 K, 33907 kPa	0.1015 W/m/K
300.4 K, 26067 kPa	0.09874 W/m/K
300.41 K, 26067 kPa	0.09891 W/m/K
301.58 K, 62451 kPa	0.1103 W/m/K
301.58 K, 62455 kPa	0.11 W/m/K
301.59 K, 68041 kPa	0.1115 W/m/K
301.59 K, 68044 kPa	0.1115 W/m/K
301.6 K, 9757 kPa	0.09158 W/m/K
301.61 K, 9755 kPa	0.09136 W/m/K
301.62 K, 52493 kPa	0.1071 W/m/K
301.63 K, 4924 kPa	0.08962 W/m/K
301.63 K, 52493 kPa	0.1066 W/m/K
301.64 K, 4920 kPa	0.089 W/m/K
301.65 K, 27815 kPa	0.0982 W/m/K
301.65 K, 43573 kPa	0.1041 W/m/K
301.65 K, 43574 kPa	0.104 W/m/K
301.66 K, 27823 kPa	0.09824 W/m/K
301.66 K, 35535 kPa	0.1015 W/m/K
301.66 K, 35538 kPa	0.1014 W/m/K
301.67 K, 289 kPa	0.08665 W/m/K
301.67 K, 293 kPa	0.08649 W/m/K
301.69 K, 21591 kPa	0.09669 W/m/K
301.69 K, 21597 kPa	0.09656 W/m/K
301.75 K, 15353 kPa	0.09399 W/m/K
301.75 K, 15355 kPa	0.0941 W/m/K
301.92 K, 62442 kPa	0.11 W/m/K
301.92 K, 62448 kPa	0.1098 W/m/K
301.93 K, 68033 kPa	0.1115 W/m/K
301.93 K, 68038 kPa	0.1117 W/m/K
301.97 K, 52486 kPa	0.1073 W/m/K
301.97 K, 52491 kPa	0.107 W/m/K
301.98 K, 9757 kPa	0.09137 W/m/K
301.99 K, 9759 kPa	0.09137 W/m/K
302 K, 43569 kPa	0.104 W/m/K
302.01 K, 43570 kPa	0.1038 W/m/K
302.02 K, 35523 kPa	0.1016 W/m/K
302.02 K, 35525 kPa	0.1012 W/m/K
302.03 K, 4920 kPa	0.08894 W/m/K
302.03 K, 4923 kPa	0.08935 W/m/K
302.03 K, 27815 kPa	0.09838 W/m/K
302.03 K, 27819 kPa	0.09867 W/m/K
302.07 K, 299 kPa	0.08696 W/m/K
302.07 K, 21586 kPa	0.09614 W/m/K
302.07 K, 21589 kPa	0.09606 W/m/K
302.08 K, 296 kPa	0.0866 W/m/K
302.14 K, 15358 kPa	0.09347 W/m/K
302.14 K, 15361 kPa	0.09381 W/m/K
302.29 K, 62439 kPa	0.1101 W/m/K
302.29 K, 68021 kPa	0.1115 W/m/K
302.3 K, 62445 kPa	0.11 W/m/K
302.3 K, 68022 kPa	0.1116 W/m/K
302.36 K, 52487 kPa	0.1067 W/m/K
302.36 K, 52489 kPa	0.107 W/m/K
302.39 K, 43573 kPa	0.104 W/m/K
